Assays:
PPARγ LBD S289C = target: T1, PPARγ LBD S289C (Homo sapiens, UniProt P37231, S317C); experiment: ITC binding of endogenous ligands to PPARγ LBD S289C; settings: PBS pH 7.2, 25 °C, ligand 0.9 mM
T1 construct: PPARγ LBD (residues 195–477 in PPARγ1 numbering) was cloned into the expression vector pET-28b(+); made in house; host or cells: Escherichia coli Rosetta 2(DE3)
T1 sequence (P37231 195-477 isoform P37231-2 S289C): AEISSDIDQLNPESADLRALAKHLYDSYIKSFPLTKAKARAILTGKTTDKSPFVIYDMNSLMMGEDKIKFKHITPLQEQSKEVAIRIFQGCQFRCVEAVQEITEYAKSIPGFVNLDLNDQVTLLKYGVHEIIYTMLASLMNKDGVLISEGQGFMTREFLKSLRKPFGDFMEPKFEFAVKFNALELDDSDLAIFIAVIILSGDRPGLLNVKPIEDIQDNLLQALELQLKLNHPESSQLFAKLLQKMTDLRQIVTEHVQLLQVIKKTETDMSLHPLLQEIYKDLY
Description: (§1) Since PPARγ is physiologically regulated by endogenous ligands, it is possible that the activation of PPARγ mutants would be induced upon binding to known endogenous PPARγ ligands. […] […]. […] […].
(§2) All the measurements were conducted in the buffer of PBS pH 7.2 at 25 °C. The ligands filled in the syringe were titrated into the proteins in the cell using 19 injections of 2 μL and an initial injection of 0.4 μL with 150 s equilibration between injections. The final protein concentrations of PPARγ LBD WT and mutants were 60 μM for 15d-PGJ2 at the ligand concentration of 900 μM and 45 μM for 13S-HODE at the ligand concentration of 900 μM, respectively. The obtained data were analyzed using Origin 7.0 software.

PPARγ LBD F287Y = target: T2, PPARγ LBD F287Y (Homo sapiens, UniProt P37231, F315Y); experiment: ITC binding of endogenous ligands to PPARγ LBD F287Y; settings: PBS pH 7.2, 25 °C, ligand 0.9 mM
T2 construct: PPARγ LBD (residues 195–477 in PPARγ1 numbering) was cloned into the expression vector pET-28b(+); made in house; host or cells: Escherichia coli Rosetta 2(DE3)
T2 sequence (P37231 195-477 isoform P37231-2 F287Y): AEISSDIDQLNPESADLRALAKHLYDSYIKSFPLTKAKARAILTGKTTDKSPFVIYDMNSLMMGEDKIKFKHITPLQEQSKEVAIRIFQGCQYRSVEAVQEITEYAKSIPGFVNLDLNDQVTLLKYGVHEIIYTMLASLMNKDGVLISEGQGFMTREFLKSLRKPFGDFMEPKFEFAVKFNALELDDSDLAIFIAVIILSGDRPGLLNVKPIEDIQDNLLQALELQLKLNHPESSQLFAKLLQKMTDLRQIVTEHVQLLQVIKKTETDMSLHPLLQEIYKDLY
Description: as §1, §2

PPARγ LBD WT = target: T3, PPARγ LBD WT (Homo sapiens, UniProt P37231); experiment: ITC binding of endogenous ligands to PPARγ LBD WT; settings: PBS pH 7.2, 25 °C, ligand 0.9 mM
T3 construct: PPARγ LBD (residues 195–477 in PPARγ1 numbering) was cloned into the expression vector pET-28b(+); made in house; host or cells: Escherichia coli Rosetta 2(DE3)
T3 sequence (P37231 195-477 isoform P37231-2): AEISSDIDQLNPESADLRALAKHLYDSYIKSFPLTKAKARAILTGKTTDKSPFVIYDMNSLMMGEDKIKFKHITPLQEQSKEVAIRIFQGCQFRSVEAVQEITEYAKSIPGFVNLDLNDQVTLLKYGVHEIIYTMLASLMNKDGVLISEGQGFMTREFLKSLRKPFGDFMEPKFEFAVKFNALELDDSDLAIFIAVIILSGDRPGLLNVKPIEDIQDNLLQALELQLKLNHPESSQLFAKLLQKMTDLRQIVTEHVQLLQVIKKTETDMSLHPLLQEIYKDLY
Description: as §1, §2

PPARγ LBD Q286E = target: T4, PPARγ LBD Q286E (Homo sapiens, UniProt P37231, Q314E); experiment: ITC binding of endogenous ligands to PPARγ LBD Q286E; settings: PBS pH 7.2, 25 °C, ligand 0.9 mM
T4 construct: PPARγ LBD (residues 195–477 in PPARγ1 numbering) was cloned into the expression vector pET-28b(+); made in house; host or cells: Escherichia coli Rosetta 2(DE3)
T4 sequence (P37231 195-477 isoform P37231-2 Q286E): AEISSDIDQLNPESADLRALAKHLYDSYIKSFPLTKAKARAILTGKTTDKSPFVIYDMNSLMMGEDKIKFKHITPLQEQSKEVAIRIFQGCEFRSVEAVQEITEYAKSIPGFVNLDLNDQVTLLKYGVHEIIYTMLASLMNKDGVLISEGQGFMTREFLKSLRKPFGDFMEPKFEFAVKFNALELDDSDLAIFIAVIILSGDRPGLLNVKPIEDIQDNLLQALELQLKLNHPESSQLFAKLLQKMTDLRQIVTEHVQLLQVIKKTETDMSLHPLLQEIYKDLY
Description: as §1, §2

PPARγ LBD R288C = target: T5, PPARγ LBD R288C (Homo sapiens, UniProt P37231, R316C); experiment: ITC binding of endogenous ligands to PPARγ LBD R288C; settings: PBS pH 7.2, 25 °C, ligand 0.9 mM
T5 construct: PPARγ LBD (residues 195–477 in PPARγ1 numbering) was cloned into the expression vector pET-28b(+); made in house; host or cells: Escherichia coli Rosetta 2(DE3)
T5 sequence (P37231 195-477 isoform P37231-2 R288C): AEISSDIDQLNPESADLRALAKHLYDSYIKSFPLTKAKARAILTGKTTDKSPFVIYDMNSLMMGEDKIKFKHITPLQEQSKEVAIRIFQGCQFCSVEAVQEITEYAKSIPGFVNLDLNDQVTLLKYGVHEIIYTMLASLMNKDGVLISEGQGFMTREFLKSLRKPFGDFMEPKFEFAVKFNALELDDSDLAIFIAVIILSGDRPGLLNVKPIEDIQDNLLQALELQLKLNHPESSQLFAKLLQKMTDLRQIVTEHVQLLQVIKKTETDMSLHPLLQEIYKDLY
Description: as §1, §2

PPARγ LBD R288H = target: T6, PPARγ LBD R288H (Homo sapiens, UniProt P37231, R316H); experiment: ITC binding of endogenous ligands to PPARγ LBD R288H; settings: PBS pH 7.2, 25 °C, ligand 0.9 mM
T6 construct: PPARγ LBD (residues 195–477 in PPARγ1 numbering) was cloned into the expression vector pET-28b(+); made in house; host or cells: Escherichia coli Rosetta 2(DE3)
T6 sequence (P37231 195-477 isoform P37231-2 R288H): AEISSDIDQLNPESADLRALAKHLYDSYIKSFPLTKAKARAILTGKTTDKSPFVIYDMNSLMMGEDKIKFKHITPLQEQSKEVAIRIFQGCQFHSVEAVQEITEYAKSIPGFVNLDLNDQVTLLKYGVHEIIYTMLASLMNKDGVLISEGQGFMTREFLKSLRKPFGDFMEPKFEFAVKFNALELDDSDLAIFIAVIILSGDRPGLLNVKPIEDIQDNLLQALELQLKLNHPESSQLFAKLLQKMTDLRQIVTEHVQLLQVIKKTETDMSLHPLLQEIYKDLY
Description: as §1, §2

PPARγ LBD C285Y = target: T7, PPARγ LBD C285Y (Homo sapiens, UniProt P37231, C313Y); experiment: ITC binding of endogenous ligands to PPARγ LBD C285Y; settings: PBS pH 7.2, 25 °C, ligand 0.9 mM
T7 construct: PPARγ LBD (residues 195–477 in PPARγ1 numbering) was cloned into the expression vector pET-28b(+); made in house; host or cells: Escherichia coli Rosetta 2(DE3)
T7 sequence (P37231 195-477 isoform P37231-2 C285Y): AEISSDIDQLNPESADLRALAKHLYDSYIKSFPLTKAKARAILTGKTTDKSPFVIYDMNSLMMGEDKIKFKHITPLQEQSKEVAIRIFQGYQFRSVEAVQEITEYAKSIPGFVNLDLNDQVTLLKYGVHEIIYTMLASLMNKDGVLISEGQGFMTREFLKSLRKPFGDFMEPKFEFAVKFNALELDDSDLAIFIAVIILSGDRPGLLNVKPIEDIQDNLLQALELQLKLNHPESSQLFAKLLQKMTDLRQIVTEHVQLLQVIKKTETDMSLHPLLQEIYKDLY
Description: as §1, §2

PPARγ LBD Q286P = target: T8, PPARγ LBD Q286P (Homo sapiens, UniProt P37231, Q314P); experiment: ITC binding of endogenous ligands to PPARγ LBD Q286P; settings: PBS pH 7.2, 25 °C, ligand 0.9 mM
T8 construct: PPARγ LBD (residues 195–477 in PPARγ1 numbering) was cloned into the expression vector pET-28b(+); made in house; host or cells: Escherichia coli Rosetta 2(DE3)
T8 sequence (P37231 195-477 isoform P37231-2 Q286P): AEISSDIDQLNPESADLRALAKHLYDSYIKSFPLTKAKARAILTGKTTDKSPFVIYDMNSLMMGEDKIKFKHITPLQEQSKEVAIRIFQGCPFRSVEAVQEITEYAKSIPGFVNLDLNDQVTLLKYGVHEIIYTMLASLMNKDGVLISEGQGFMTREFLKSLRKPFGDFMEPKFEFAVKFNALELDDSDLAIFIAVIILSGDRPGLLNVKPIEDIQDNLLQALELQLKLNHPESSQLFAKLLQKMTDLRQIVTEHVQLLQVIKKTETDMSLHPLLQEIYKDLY
Description: as §1, §2

PPARγ LBD R280C = target: T9, PPARγ LBD R280C (Homo sapiens, UniProt P37231, R308C); experiment: ITC binding of endogenous ligands to PPARγ LBD R280C; settings: PBS pH 7.2, 25 °C, ligand 0.9 mM
T9 construct: PPARγ LBD (residues 195–477 in PPARγ1 numbering) was cloned into the expression vector pET-28b(+); made in house; host or cells: Escherichia coli Rosetta 2(DE3)
T9 sequence (P37231 195-477 isoform P37231-2 R280C): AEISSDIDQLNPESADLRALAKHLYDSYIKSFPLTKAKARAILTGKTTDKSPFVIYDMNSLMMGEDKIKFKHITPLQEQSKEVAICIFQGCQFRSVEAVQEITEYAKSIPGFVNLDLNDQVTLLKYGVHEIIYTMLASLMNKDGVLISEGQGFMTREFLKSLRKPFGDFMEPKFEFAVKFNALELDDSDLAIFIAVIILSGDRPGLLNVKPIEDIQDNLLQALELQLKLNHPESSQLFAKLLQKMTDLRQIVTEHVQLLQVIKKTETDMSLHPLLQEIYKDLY
Description: as §1, §2

[1] = target: MED1 co-activator peptide containing the LXXLL motif; experiment: SPR; MED1 peptide amine-coupled to a CM5 chip (about 60 RU); PPARγ LBD WT or mutant injected at 78 nM to 10 μM, 30 μL/min, 120 s, dissociation 400 s; Biacore T200, 25 °C; 50 mM Tris-HCl pH 7.5, 150 mM NaCl, 1 mM TCEP, 0.005% tween 20; 1:1 Langmuir model
[2] = target: T10, PPARγ LBD WT (peroxisome proliferator-activated receptor gamma ligand-binding domain, wild-type) (human, UniProt P37231-2 195-477); experiment: SPR; RXRα LBD amine-coupled to a CM5 chip (about 600 RU); PPARγ LBD WT or mutant injected, 30 μL/min, 120 s, dissociation 500 s; Biacore T200, 25 °C; 50 mM Tris-HCl pH 7.5, 150 mM NaCl, 1 mM TCEP, 0.005% tween 20; 1:1 Langmuir model; settings: both partners purified
T10 construct: numbers count on: the PPARγ1 isoform; pET-28b(+) between Nde1 and Xho1; also called PPARγ WT; source: E. coli Rosetta 2(DE3), purified (Ni2+ HiTrap chelating, thrombin cleavage, Superdex200 gel filtration); not shown: His6, N-terminal, cleaved
T10 sequence (looked up): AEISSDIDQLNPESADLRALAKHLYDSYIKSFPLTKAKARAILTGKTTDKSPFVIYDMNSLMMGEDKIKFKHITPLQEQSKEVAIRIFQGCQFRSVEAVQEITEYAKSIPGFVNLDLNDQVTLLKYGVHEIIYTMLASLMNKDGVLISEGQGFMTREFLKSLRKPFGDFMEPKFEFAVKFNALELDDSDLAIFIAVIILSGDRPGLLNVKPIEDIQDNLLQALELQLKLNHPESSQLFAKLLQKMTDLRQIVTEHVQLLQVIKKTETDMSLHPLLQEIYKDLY

Question: How did the Kd (PPARγ LBD S289C) turn out when `CCCCC[C@H](O)/C=C/C=C\CCCCCCCC(=O)O` [13S-HODE, 13S-hydroxy-9Z,11E-octadecadienoic acid] was run?
Answer: > 201 µM

Question: And the Kd (PPARγ LBD F287Y)?
Answer: 27.7 µM

Question: What about the Kd (PPARγ LBD WT) of the same molecule?
Answer: 14.6 µM

Question: And the Kd (PPARγ LBD Q286E)?
Answer: 45.9 µM

Question: And the Kd (PPARγ LBD R288C)?
Answer: > 201 µM

Question: What about the Kd (PPARγ LBD R288H) of the same molecule?
Answer: 67.1 µM

Question: And the Kd (PPARγ LBD C285Y)?
Answer: 42.7 µM

Question: And the Kd (PPARγ LBD Q286P)?
Answer: > 201 µM

Question: And the Kd (PPARγ LBD R280C)?
Answer: > 201 µM

Question: “PPARγ LBD Q286E (from UniProt P37231-2 195-477) (domain or fragment)” was tested. Which Kd [1] did it give?
Answer: 5.61 µM

B1: RXRα LBD (retinoid X receptor α ligand-binding domain) (domain or fragment, UniProt P19793 223-462, looked up)
chain: TSSANEDMPVERILEAELAVEPKTETYVEANMGLNPSSPNDPVTNICQAADKQLFTLVEWAKRIPHFSELPLDDQVILLRAGWNELLIASFSHRSIAVKDGILLATGLHVHRNSAHSAGVGAIFDRVLTELVSKMRDMQMDKTELGCLRAIVLFNPDSKGLSNPAEVEALREKVYASLEAYCKHKYPEQPGRFAKLLLRLPALRSIGLKCLEHLFFFKLIGDTPIDTFLMEMLEAPHQMT
Question: B1 was tested. Which Kd [2] did it give?
Answer: 0.0579 µM

— publication PMC7761077, “Differential Effects of Cancer-Associated Mutations Enriched in Helix H3 of PPARγ” (Cancers, 2020)
